Data on four molecules can be found in patent publication US5981517A, “Androstene derivatives” (priority 1997, dated 1999).

SMILES strings stand for the structures.

For series [1], the system named is rats. To be noted: oral; cited from earlier work.
The test system of series [2] is granuloma / thymolysis. Kind of series: Comparison of local effect and systemic side-effects (therapeutic index). The class given is in vivo, rat. To be noted: granuloma relative potency / thymolysis relative potency. Here is the method:
The test compound was dissolved in acetone and aliquots of varying concentrations were injected into cotton pellets. The pellets were dried and then one pellet was implanted beneath the skin of each test rat. Six days later, the animals were sacrificed and the granulation tissue (granuloma) which formed in and around the implanted pellet was removed, dried and weighed. In addition, the thymi and adrenals were removed and weighed.
(§1) Several further studies were undertaken to determine the effects of a selected compound of the invention and prior art steroids on thymi weights in rats when the drugs were systemically administered. In each of these studies, male Sprague-Dawley rats were used. The test compounds were suspended in 0.5% CMC (carboxymethylcellulose) and injected subcutaneously once daily for three days. On the fifth day (48 hours following the last treatment), the animals were sacrificed and the thymi weights were recorded. Body weight gains were measured 24 hours after the last treatment.
The ED50 's calculated for the local cotton pellet granuloma assay and the TED40 's calculated on the basis of thymus inhibition testing as described above were used to arrive at relative potency and a therapeutic index for a representative species of the invention as compared to prior art steroids.

Series [3] deals with skin. Put plainly: Skin weight test, 10 days of topical treatment in the rat. Format: in vivo, Male Sprague-Dawley rats. To be noted: for Wet skin weight, Treated, Decrease / Wet skin weight, Untreated, Decrease: percent decrease of the control; for Wet skin weight, Treated, Decrease: treated flank; for Wet skin weight, Untreated, Decrease: untreated flank; for Body wt. gain / Thymus wt. / Wet skin weight, Treated / Wet skin weight, Untreated: topical 0.1%, 10 days; for Body wt. gain / Thymus wt.: daily dose 30 μg; for Thymus wt. / Wet skin weight, Treated / Wet skin weight, Untreated: mean ± S.E.; for Wet skin weight, Treated: treated left flank; for Wet skin weight, Treated / Wet skin weight, Untreated: 30 μg daily; for Wet skin weight, Untreated: untreated right flank. Here is the method: Male Sprague-Dawley rats, weighing about 210 g, were lightly anesthetized with ether, shaved and marked in three areas on each flank with intradermally injected blue ink. […] Treated control animals received daily topical administration of the vehicle (DMF) alone. Solvent and test compound solutions (10 μL) were applied once daily for 10 consecutive days, with […] necessary. On the eleventh day, the animals were sacrificed, their skins were removed and 16 mm diameter plugs were punched out from each area. The plugs were scraped carefully to remove subcutaneous fat and muscle, then they were blotted on filter paper and weighed. Skin atrophy is a known side effect associated with topically applied anti-inflammatory steroids.

In series [4] the test system is thymi. Further details: species or system male Sprague-Dawley rats. To be noted: rat, in vivo, sc. Here is the method:
as §1, with “treatment. From the test results, the TED40 's (thymolytic effective doses, that is, doses required to achieve 40% inhibition of thymi weight) and relative potencies of a representative compound of the invention and reference steroids were calculated. […] It is evident that the higher the inhibition of thymus activity at a given dose, the more toxic the compound is.” for “treatment.”

As usually defined, the LD50 is the dose expected to kill half of the subjects tested. Regarding `CCC(=O)O` [propionic acid], the LD50 in series [1] was 4290 mg/kg.

Regarding `CCC(=O)O[C@]1(C(=O)CCl)[C@@H](C)C[C@H]2[C@@H]3CCC4=CC(=O)C=C[C@]4(C)[C@@]3(F)[C@@H](O)C[C@@]21C` [Clobetasol 17-propionate], the “Therapeutic Index (a/b)” value in series [2] was 1.54. In series [3], the “Wet skin weight, Treated, Decrease” value was 21.2%; the “Wet skin weight, Untreated, Decrease” value is listed as 19.2%; the Body wt. gain turned out to be 24.2 ± 2.3 g; the Thymus wt. was found to be 190 ± 14 mg. In series [3], the “Wet skin weight, Treated” value was found to be 78.2 mg and the “Wet skin weight, Untreated” value came out at 67.6 ± 6.2 mg. The “Thymolysis, Relative Potency at ED40 Level (b)” value in series [4] is reported as 1927.

As for `CCCC(=O)O[C@]1(C(=O)CO)CC[C@H]2[C@@H]3CCC4=CC(=O)CC[C@]4(C)[C@H]3[C@@H](O)C[C@@]21C` [Hydrocortisone 17-butyrate], the “Therapeutic Index (a/b)” value in series [2] came to 1.23. For the same molecule, in series [3], the “Wet skin weight, Treated, Decrease” value was 13.1%; the “Wet skin weight, Untreated, Decrease” value was 14.0%; the Body wt. gain amounted to 45.7 ± 10.6 g; the Thymus wt. is 540 ± 61 mg. Moreover, in series [3], the “Wet skin weight, Treated” value came to 86.3 ± 1.5 mg and the “Wet skin weight, Untreated” value is given as 72.0 ± 4.7 mg. The “Thymolysis, Relative Potency at ED40 Level (b)” value in series [4] is listed as 57.

As for `CC(=O)O` [Acetic acid], the LD50 in series [1] is 3530 mg/kg.
